From patent US20260184663A1, “INDENE COMPOUNDS, PHARMACEUTICAL COMPOSITIONS THEREOF, AND THEIR THERAPEUTIC APPLICATIONS” (NucMito Pharmaceuticals co. Ltd., priority 2022, published 2026) come the findings set out here.

Holding throughout (type): cell-based
The subject of assay [1] is alpha-smooth muscle actin (α-SMA). Nature of the assay: Inhibition of TGF-β induced expression of alpha-smooth muscle actin (α-SMA) in CFSC cells (western blot). To be noted: compound at 10 μM, TGF-β (10 ng/mL), 24 hours, band intensity vs TGF-β only. Summed up:
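Values are percent reduction of α-SMA band intensity relative to cells given TGF-β alone, quantified by Western blot densitometry with β-actin probed. Compound was applied at 10 μM alongside 10 ng/mL TGF-β to serum-free CFSC cultures for 24 h at 37 °C.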
On the technique in general: A western blot detects proteins with antibodies after separation by electrophoresis.

For assay [2], the system named is MDA-MB-231 (breast cancer). The assay can be described thus: Antiproliferative activity (CCK-8 cell viability), MDA-MB-231. To be noted: Homo sapiens, 72 h, read-out: Antiproliferative activity in cancerous cells, MDA-MB-231 (inhibition of cell growth); for inhibition at 3.3 µM: Compound concentration: 3.3 μM; for inhibition at 10 µM: Compound concentration: 10 μM. Summed up: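 Growth inhibition of human MDA-MB-231 breast cancer cells was assessed with a Cell Counting Kit-8. Cells cultured in DMEM plus 10% FBS were seeded at 2,000-5,000 cells/well, treated after attachment, and kept 72 h at 37° C. CCK-8 solution (10 μL) was added for 4 h, and absorbance at 450 nm was compared with DMSO-treated controls.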

The subject of assay [3] is A549 (lung adenocarcinoma). Nature of the assay: Antiproliferative activity (CCK-8 cell viability), A549. The following applies: Homo sapiens, 72 h, read-out: Antiproliferative activity in cancerous cells, A549 (inhibition of cell growth); for inhibition at 3.3 µM: Compound concentration: 3.3 μM; for inhibition at 10 µM: Compound concentration: 10 μM. Summed up: (§1)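 Growth inhibition graded in bands from percent viability against DMSO vehicle, read as CCK-8 absorbance at 450 nm. Compound tested at 3.3, 10 or 30 μM for 72 h, 37 °C; media contained 10% FBS: DMEM for HepG2/SW480, MEM for HeLa, F-12K for A549.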

Assay [4] has as its system A431 (epidermoid carcinoma). The assay can be described thus: Antiproliferative activity (CCK-8 cell viability), A431. The following applies: Homo sapiens, 72 h; for inhibition at 3.3 µM: A-431, Compound concentration: 3.3 μM; for inhibition at 3.3 µM / inhibition at 10 µM: read-out: Antiproliferative activity in cancerous cells, A431 (inhibition of cell growth); for inhibition at 10 µM: A-431, Compound concentration: 10 μM. An outline of the steps: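 This growth inhibition assay used A431 cells maintained in Dulbecco's modified Eagle's medium plus 10% fetal bovine serum. Cells were seeded in 96-well plates, treated with compound for 72 h at 37° C., and then given 10 μL CCK-8 solution. After a further 4 h, absorbance was read at 450 nm.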

The test system of assay [5] is B16F10 (malignant melanoma). The assay can be described thus: Antiproliferative activity (CCK-8 cell viability), B16F10. To be noted: Mus musculus, 72 h; for inhibition at 3.3 µM: B16-F10, Compound concentration: 3.3 μM; for inhibition at 3.3 µM / inhibition at 10 µM: read-out: Antiproliferative activity in cancerous cells, B16F10 (inhibition of cell growth); for inhibition at 10 µM: B16-F10, Compound concentration: 10 μM. An outline of the steps:
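Cell growth inhibition was measured in B16F10 malignant melanoma cells with a Cell Counting Kit-8 viability assay. Cells were maintained in DMEM plus 10% fetal bovine serum, seeded at 2,000-5,000 cells/well in 96-well plates, and treated for 72 h at 37° C. Viability was expressed relative to DMSO-treated vehicle control wells.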

A further assay has as its system SW480 (colon cancer). Nature of the assay: Antiproliferative activity (CCK-8 cell viability), SW480. To be noted: Homo sapiens, 72 h, read-out: Antiproliferative activity in cancerous cells, SW480 (inhibition of cell growth); for inhibition at 3.3 µM: Compound concentration: 3.3 μM; for inhibition at 10 µM: Compound concentration: 10 μM. An outline of the steps:
as §1

A further assay relates to HeLa (cervical cancer). The assay can be described thus: Antiproliferative activity (CCK-8 cell viability), HeLa. The following applies: Homo sapiens, 72 h; for inhibition at 3.3 µM: Compound concentration: 3.3 μM; for inhibition at 3.3 µM / inhibition at 10 µM: read-out: Antiproliferative activity in cancerous cells, HELA (inhibition of cell growth); for inhibition at 10 µM: Compound concentration: 10 μM. Summed up: as §1

The next assay has as its system HepG2 (liver cancer). The assay can be described thus: Antiproliferative activity (CCK-8 cell viability), HepG2. To be noted: Homo sapiens, 72 h, read-out: Antiproliferative activity in cancerous cells, HepG2 (inhibition of cell growth); for inhibition at 3.3 µM: Compound concentration: 3.3 μM; for inhibition at 10 µM: Compound concentration: 10 μM. An outline of the steps:
as §1

`O=C(O)CC1=C(Cc2ccc(C(F)(F)F)cc2)/C(=C/c2cccc(COc3ccccc3)c2)c2ccc(F)cc21` [A10, (Z)-2-(5-Fluoro-1-(3-(phenoxymethyl)benzylidene)-2-(4-(trifluoromethyl)-benzyl)-1H-inden-3-yl)acetic acid]: the inhibition at 10 µM in assay [1] is more than 80%; in assay [2], not below 50%; in assay [3], not below 50%; in assay [4] it was not below 50%; in assay [5], not below 50%; in the assay on SW480 (colon cancer), not below 50%. Further, the inhibition at 10 µM in the assay with HeLa (cervical cancer) and with HepG2 (liver cancer) was not below 50% throughout. Also, the inhibition at 3.3 µM in assay [2] was not below 50%; in assay [3] it was 30 to 50%; in assay [4], not below 50%; in assay [5] it was not below 50%; in the assay with SW480 (colon cancer), not below 50%; with HeLa (cervical cancer), not below 50%. Moreover, the inhibition at 3.3 µM in the assay on HepG2 (liver cancer) is not below 50%.
Regarding `CCC1=C(CC(=O)O)c2cc(F)ccc2/C1=C\c1cccc(Oc2ccccc2)c1` [C19, (Z)-2-(2-Ethyl-5-fluoro-1-(3-phenoxybenzylidene)-1H-inden-3-yl)acetic acid], the inhibition at 10 µM was more than 80% in assay [1]; not below 50% in assay [2]; not below 50% in assay [3]; not below 50% in assay [4]; not below 50% in assay [5]; less than 30% with SW480 (colon cancer). The inhibition at 10 µM is not below 50% in the assay with HeLa (cervical cancer) and 30 to 50% with HepG2 (liver cancer). The inhibition at 3.3 µM in assay [2] is not below 50%; in assay [3] it was 30 to 50%; in assay [4], less than 30%; in assay [5], less than 30%; in the assay with SW480 (colon cancer) it was less than 30%; with HeLa (cervical cancer) it was 30 to 50%. In addition, the inhibition at 3.3 µM in the assay with HepG2 (liver cancer) was less than 30%.
As to `CC1=C(CC(=O)N2CCN(CCO)CC2)c2cc(F)ccc2/C1=C\c1ccc(Oc2ccc(F)cc2)cc1` [C37, (Z)-2-(5-Fluoro-1-(4-(4-fluorophenoxy)benzylidene)-2-methyl-1H-inden-3-yl)-1-(4-(2-hydroxyethyl)piperazin-1-yl)ethan-1-one], the inhibition at 10 µM is more than 80% in assay [1]; less than 30% in assay [2]; less than 30% in assay [3]; less than 30% in assay [4]; less than 30% in assay [5]; less than 30% in the assay on SW480 (colon cancer). Also, the inhibition at 10 µM in the assay on HeLa (cervical cancer) and in the assay with HepG2 (liver cancer) was less than 30% throughout. Further, the inhibition at 3.3 µM (in assay [2]; in assay [3]; in assay [4]; in assay [5]; in the assay on SW480 (colon cancer); in the assay on HeLa (cervical cancer)) was less than 30% in each case. In addition, in the assay on HepG2 (liver cancer), the inhibition at 3.3 µM is less than 30%. Also, the inhibition at 30 µM is 30 to 50% in assay [4] (A-431, Compound concentration: 30 μM, read-out: Antiproliferative activity in cancerous cells, A431); less than 30% in assay [5] (B16-F10, Compound concentration: 30 μM, read-out: Antiproliferative activity in cancerous cells, B16F10); less than 30% with HeLa (cervical cancer) (Compound concentration: 30 μM, read-out: Antiproliferative activity in cancerous cells, HELA).
Consider `CCC1=C(CC(=O)O)c2cc(F)ccc2/C1=C\c1ccc(COc2ccccc2)cc1` [A2, (Z)-2-(2-Ethyl-5-fluoro-1-(4-(phenoxymethyl)benzylidene)-1H-inden-3-yl)acetic acid], for which the inhibition at 10 µM in assay [1] is more than 80%; in assay [2] it was not below 50%; in assay [3] it was not below 50%; in assay [4] it was 30 to 50%; in assay [5], not below 50%; in the assay with SW480 (colon cancer), less than 30%. Besides, the inhibition at 10 µM in the assay with HeLa (cervical cancer) and in the assay with HepG2 (liver cancer) was not below 50% in each case. In addition, the inhibition at 3.3 µM in assay [2] was not below 50%; in assay [3], 30 to 50%; in assay [4], less than 30%; in assay [5], 30 to 50%; with SW480 (colon cancer), less than 30%; in the assay on HeLa (cervical cancer), 30 to 50%. For the same compound, the inhibition at 3.3 µM in the assay with HepG2 (liver cancer) lay in the range of 30 to 50%.
As for `COc1ccc2c(c1)/C(=C\c1cccc(COc3ccc(F)cc3)c1)C(C)=C2CC(=O)O` [B22, (Z)-2-(1-(3-((4-Fluorophenoxy)methyl)benzylidene)-6-methoxy-2-methyl-1H-inden-3-yl)acetic acid], the inhibition at 10 µM in assay [1] was more than 80%; in assay [2], 30 to 50%; in assay [3], less than 30%; in assay [4], less than 30%; in assay [5], less than 30%; in the assay on SW480 (colon cancer), less than 30%. Moreover, the inhibition at 10 µM in the assay with HeLa (cervical cancer) is 30 to 50%; with HepG2 (liver cancer) it was less than 30%. Moreover, the inhibition at 3.3 µM in assay [2] is 30 to 50%; in assay [3] it was less than 30%; in assay [4] it was less than 30%; in assay [5] it was less than 30%; with SW480 (colon cancer), less than 30%; in the assay on HeLa (cervical cancer) it was less than 30%. Besides, in the assay with HepG2 (liver cancer), the inhibition at 3.3 µM was less than 30%.
Take `COc1ccc2c(c1)/C(=C\c1ccc(Oc3ccc(F)cc3)cc1)C=C2CC(=O)O` [C2, (Z)-2-(1-(4-(4-Fluorophenoxy)benzylidene)-6-methoxy-1H-inden-3-yl)acetic acid]: the inhibition at 10 µM was more than 80% in assay [1]; not below 50% in assay [2]; less than 30% in assay [3]; not below 50% in assay [4]; not below 50% in assay [5]; 30 to 50% in the assay on SW480 (colon cancer). Further, the inhibition at 10 µM in the assay with HeLa (cervical cancer) was not below 50%; in the assay on HepG2 (liver cancer), 30 to 50%. Moreover, the inhibition at 3.3 µM in assay [2] was not below 50%; in assay [3], less than 30%; in assay [4] it was 30 to 50%; in assay [5], less than 30%; in the assay with SW480 (colon cancer), not below 50%; in the assay with HeLa (cervical cancer), 30 to 50%. Besides, the inhibition at 3.3 µM with HepG2 (liver cancer) lay within 30 to 50%.
With `O=C(O)CC1=C(Cc2ccc(Oc3ccc(F)cc3)cc2)/C(=C/c2cccc(C(F)(F)F)c2)c2ccc(F)cc21` [A109, (Z)-2-(5-Fluoro-2-(4-(4-fluorophenoxy)benzyl)-1-(3-(trifluoromethyl)-benzylidene)-1H-inden-3-yl)acetic acid], the inhibition at 10 µM in assay [1] is more than 80%; in assay [2], not below 50%; in assay [3], not below 50%; in assay [4], not below 50%; in assay [5], not below 50%; in the assay with SW480 (colon cancer), less than 30%. Besides, the inhibition at 10 µM in the assay on HeLa (cervical cancer) is not below 50%; in the assay on HepG2 (liver cancer), less than 30%. Also, the inhibition at 3.3 µM in assay [2] was not below 50%; in assay [3], not below 50%; in assay [4], 30 to 50%; in assay [5], less than 30%; in the assay on SW480 (colon cancer), less than 30%; with HeLa (cervical cancer), less than 30%. Further, the inhibition at 3.3 µM with HepG2 (liver cancer) is less than 30%.
